Test results as given in patent US20220324835A1 (Nurix Therapeutics, Inc., priority 2018, published 2022).

System: T-cells
Experiment: In vivo activity: CD25 expression on CD4+ or CD8+ T-cells of mice stimulated with anti-CD3 antibody
Details: 2 μg anti-CD3 antibody, 24 hours
Summary of the method: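 C57BL/6 or BALB/c mice dosed with inhibitor (IV, IP, SC or PO, e.g. BID or TID), then stimulated with 2 μg anti-CD3 antibody. Plasma IL-2, IFNγ, TNFα at 8 h and CD25 on CD4+/CD8+ T-cells by flow cytometry at 24 h; fold change over vehicle plus anti-CD3, binned A–E.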

Compound | CD4+ T-cell % CD25+ (90 mpk IP BID) | CD8+ T-cell % CD25+ (90 mpk IP BID) | CD4+ T-cell % CD25+ (90 mpk PO BID) | CD8+ T-cell % CD25+ (90 mpk PO BID) | CD4+ T-cell % CD25+ (135 mpk PO BID) | CD8+ T-cell % CD25+ (135 mpk PO BID) | CD4+ T-cell % CD25+ (180 mpk PO BID) | CD8+ T-cell % CD25+ (180 mpk PO BID)
C[C@H](Cc1nncn1C)c1cccc(NC(=O)c2ccnc(C(F)(F)F)n2)c1 [Compound 187, (R)-N-(3-(1-(4-methyl-4H-1,2,4-triazol-3-yl)propan-2-yl)phenyl)-2-(trifluoromethyl)pyrimidine-4-carboxamide] | C (C indicates 1.51-2.00) | D (D indicates 1.00-1.50) | – | – | – | – | – | –
Cn1cnnc1[C@@H]1C[C@@H]1c1cccc(N2Cc3c(cccc3C(F)(F)F)C2=O)c1 [Compound 282, 2-(3-((1S,2R)-2-(4-methyl-4H-1,2,4-triazol-3-yl)cyclopropyl)phenyl)-4-(trifluoromethyl)isoindolin-1-one] | – | – | D (D indicates 1.00-1.50) | D (D indicates 1.00-1.50) | C (C indicates 1.51-2.00) | D (D indicates 1.00-1.50) | B (B indicates 2.01-2.50) | D (D indicates 1.00-1.50)
